From publication PMC5431889, “Stapled BIG3 helical peptide ERAP potentiates anti-tumour activity for breast cancer therapeutics” (Scientific Reports, 2017)
One block for each molecule: values may come before it. Where a SMILES comes first, the peptide text is derived from it.

Key:
[1] = test system: MCF-7 cells; test: Cell cycle assay by flow cytometry (propidium iodide); format: cell-based, human; conditions: 10 nM E2, 10 μM stERAP-6, 1 μM tamoxifen
Experimental: Cells were fixed in cold 70% ethanol, incubated with 20 µg mL^−1 propidium iodide (Sigma) and 1 mg mL^−1 ribonuclease A (Sigma), and analysed by flow cytometry using a FACSCalibur with CellQuest software (BD).

[2] = test system: MCF-7 cells; format: cell-based, human; conditions: 96 h
Source text: After […] ERAP). Microarray analysis. […]

[3] = Circular dichroism, α-helical content; format: physicochemical; conditions: CD 185-265 nm, 25 °C, 50 μg mL−1 in 10 mM sodium phosphate buffer pH 7.0
Experimental: CD spectrum in the range of 185 to 265 nm was recorded at 25 °C in a 2 mm-path quartz cuvette. Protein concentration was 50 μg mL^−1 in 10 mM sodium phosphate buffer (pH 7.0). Molar ellipticity [θ] was calculated.

[4] = test system: KPL-3C orthotropic breast cancer xenografts; test: In vivo tumour growth inhibition, KPL-3C orthotopic xenografts; design: species or system mice; conditions: intraperitoneal, E2 6 μg per day, n = 5
Experimental: KPL-3C cell suspensions (1 × 10^7 cells per mouse) were mixed with an equal volume of Matrigel (Corning) and injected (200 μL total) into the mammary fat pads of 6-week-old female BALB/c nude mice (Charles River Laboratories). The mice were housed in a pathogen-free isolation facility with a 12 h light/dark cycle and were fed rodent chow and water ad libitum. The tumours developed over a period of a few days, reaching sizes of approximately 100 mm^3 [calculated as 1/2 × (width × length^2)], upon injection of 6 μg per day of E2 solution to the neck skin. For intraperitoneal administration, the mice were randomized into 10 treatment groups (five animals per group): (1) no treatment; (2) 6 μg per day E2; (3) E2 + 1.4 mg kg^−1 day^−1 ERAP daily; (4) E2 + 1.4 mg kg^−1 day^−1 ERAP every 4 days; (5) E2 + 14 mg kg^−1 day^−1 ERAP daily; (6) E2 + 14 mg kg^−1 day^−1 ERAP every 4 days; (7) E2 + 1.4 mg kg^−1 day^−1 stERAP-6 daily; (8) E2 + 1.4 mg kg^−1 day^−1 stERAP-6 every 4 days; (9) E2 + 14 mg kg^−1 day^−1 stERAP-6 daily; and 10() E2 + 14 mg kg^−1 day^−1 stERAP-6 every 4 days. For intravenous administration, the mice were randomized into 10 treatment groups (five animals per group): (1) no treatment; (2) 6 μg per day E2; (3) E2 + 0.1 mg kg^−1 day^−1 stERAP-6 daily; (4) E2 + 1 mg kg^−1 day^−1 stERAP-6 daily; (5) E2 + 10 mg kg^−1 day^−1 stERAP-6 daily; (6) E2 + 0.1 mg kg^−1 day^−1 stERAP-6 weekly; (7) E2 + 1 mg kg^−1 day^−1 stERAP-6 weekly; (8) E2 + 10 mg kg^−1 day^−1 stERAP-6 weekly; (9) E2 + 1 mg kg^−1 day^−1 alanine-mutant stERAP-6 daily; and (10) E2 + 10 mg kg^−1 day^−1 alanine-mutant stERAP-6 daily. E2 was delivered via the application of a solution to the neck skin as previously noted.
The tumour volume was measured with calipers, after which time the mice were sacrificed and tumours excised. TGI was calculated according to the formula: [1 − (T − T0)/(C − C0)] × 100, where T and T0 are the mean tumour volumes at day 28 or 35 and day 1, respectively, for the experimental group, and C and C0 are those for the E2-treated group. The organs (heart, lung, liver, kidney, pancreas, and brain) were also immediately removed. A portion of each tissue was fixed in 10% neutral formalin for histological examination, while the remaining tissue sample was frozen and preserved at −80 °C for subsequent western blot analysis. All the experiments were performed in accordance with the guidelines of the animal care and use facility at Tokushima University.

[5] = test system: TAM-R MCF-7 cells; test: MTT assay, tamoxifen-resistant (TAM-R) MCF-7 cell growth; format: cell-based, human; conditions: 10 nM E2 and 1 μM tamoxifen, single treatment at 0 h, up to 96 h; three independent experiments
[6] = test system: BIG3-PHB2 complex and ERα signalling in tumours; test: Co-immunoprecipitation, RT-PCR and immunoblot analysis of excised KPL-3C tumours; format: in vivo, mice
Experimental: Immunoblot analyses were performed as described previously. After SDS-PAGE, the membranes were blocked with 4% BlockAce solution (Dainippon Pharmaceutical) for 3 h and then incubated with antibodies against the following proteins: BIG3 (1:1,000)[10]; PHB2 (1:1,000, Abcam); Akt (1:1,000), phospho-Akt (S473) (587F11, 1:1,000); p44/42 MAPK (1:1,000), phospho-p44/42 MAPK (T202/Y204) (1:1,000); mTOR (1:1,000); phospho-mTOR (S2448) (1:1,000); S6K (1:1,000); phopho-S6K (T389) (1:1,000); α/β-tubulin (1:1,000) (Cell Signalling Technology); and LMNB1 (1:100, Sigma). After incubation with an HRP-conjugated secondary antibody (anti-mouse IgG-HRP, 1:5,000; anti-rat IgG-HRP; 1:5,000; or anti-rabbit IgG-HRP, 1:1,000; Santa Cruz Biotechnology) for 1 h, the blots were developed with an enhanced chemiluminescence (ECL) system (GE Healthcare) and scanned using an Image Reader LAS-3000 mini (Fujifilm). All the experiments were performed in triplicate at a minimum. Full-length images of immunoblots are shown in Supplementary Fig. S5. […]
The expression of the ERα target genes (TFF1 and CCND1) was evaluated by real-time RT-PCR as described previously. Each sample was normalized to the β 2-MG mRNA content, and the results were expressed as the fold increase over untreated cells (set at 1.0). […]
The tumour volume was measured with calipers, after which time the mice were sacrificed and tumours excised. […]

[7] = test system: MCF-7 cells; conditions: E2-dependent breast cancer cell growth; cited from earlier work
Experimental: We previously developed a dominant-negative peptide, ER α activity-regulator synthetic peptide (ERAP), which specifically disrupts the BIG3-PHB2 interaction and inhibits multiple ERα-signalling pathways driving breast cancer cell growth by reactivating tumour-suppressive activity of PHB2[10]. […] However, its inhibitory effect was only maintained for 24 h, most likely due to its high susceptibility to proteolytic degradation.

[8] = biological target: prohibitin 2 (human (endogenous in MCF-7 and KPL-3C), UniProt Q99623 1-299); test: cell-based or functional assay
prohibitin 2, sequence (Q99623 whole entry): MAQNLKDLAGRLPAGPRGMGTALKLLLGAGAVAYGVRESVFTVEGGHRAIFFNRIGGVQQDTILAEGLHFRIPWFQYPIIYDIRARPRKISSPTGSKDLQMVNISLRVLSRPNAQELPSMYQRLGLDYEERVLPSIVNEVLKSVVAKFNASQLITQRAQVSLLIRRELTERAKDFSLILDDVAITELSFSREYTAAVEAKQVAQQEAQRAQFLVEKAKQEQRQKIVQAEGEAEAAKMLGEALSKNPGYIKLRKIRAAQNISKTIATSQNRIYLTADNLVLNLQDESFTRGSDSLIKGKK

[9] = biological target: T1, His-tagged recombinant PHB2 (UniProt Q99623 1-299); test: SPR; Biacore 3000; recombinant PHB2 bound to a CM5 sensor chip, peptides as analytes at the indicated concentrations; BIAevaluation software; conditions: both partners purified
T1 construct: PHB2 (prohibitin 2), recombinant, His-tagged; also called His-PHB2; source: recombinant
T1 sequence (Q99623 whole entry): as above

Molecule: CC/C(=C(\c1ccccc1)c1ccc(OCCN(C)C)cc1)c1ccccc1 [tamoxifen]
apoptotic (sub-G1) cell population [1]: 7.44%

IC50 [2]: 7.97 µM | α-helical content [3]: 21.4%
Molecule: CSCC[C@H](NC(=O)[C@H](CCC(N)=O)NC(=O)CNC(=O)CNC(=O)CNC(=O)[C@H](CCCNC(=N)N)NC(=O)[C@H](CCCNC(=N)N)NC(=O)[C@H](CCCNC(=N)N)NC(=O)[C@H](CCCNC(=N)N)NC(=O)[C@H](CCCNC(=N)N)NC(=O)[C@H](CCCNC(=N)N)NC(=O)[C@H](CCCNC(=N)N)NC(=O)[C@H](CCCNC(=N)N)NC(=O)[C@H](CCCNC(=N)N)NC(=O)[C@H](CCCNC(=N)N)NC(=O)[C@@H](N)CCCNC(=N)N)C(=O)N[C@@H](CC(C)C)C(=O)N[C@@H](CO)C(=O)N[C@@H](CC(=O)O)C(=O)N[C@@H](CC(C)C)C(=O)N[C@H](C(=O)N[C@@H](CC(C)C)C(=O)N[C@@H](CCC(N)=O)C(=O)N[C@@H](CC(C)C)C(=O)N[C@@H](CCCNC(=N)N)C(=O)N[C@@H](CCC(N)=O)C(=O)N[C@@H](CCCNC(=N)N)C(=O)O)[C@@H](C)O [ERAP] (H-RRRRRRRRRRRGGGQMLSDLTLQLRQR-OH; N-terminus and C-terminus assumed)
TGI on day 28 ([4]; 1.4 mg kg−1 every 4 days): 36.9% | TGI on day 28 ([4]; 1.4 mg kg−1 once a day for 28 days): 94.2% | TGI on day 28 ([4]; 14 mg kg−1 every 4 days): 40.3% | TGI on day 28 ([4]; 14 mg kg−1 once a day for 28 days): 94.5% | inhibition of growth of TAM-R MCF-7 cells [5]: reduced after 24 h treatment | E2-induced expression of TFF1 and CCND1 and phosphorylation levels of Akt and MAPK in tumours ([6]; intraperitoneal treatment every 4 days for 28 days): did not | inhibition of endogenous BIG3-PHB2 complex formation in tumours ([6]; intraperitoneal treatment every 4 days, co-immunoprecipitation): but not with unstapled original ERAP | duration of inhibitory effect [7]: 24 h

IC50 of E2-dependent MCF-7 cell growth at 96 h after a single treatment (MTT); the peptide blocks BIG3-PHB2 [8]: 7.97 µM | Kd [9]: 12.8 µM
B1: ERα activity-regulator synthetic peptide (native ERAP; 11R-GGG-QMLSDLTLQLRQR) (peptide)
peptide: RRRRRRRRRRRGGGQMLSDLTLQLRQR
notes: membrane-permeable polyarginine (11R) and GGG linker, printed as 11R-GGG; also called unstapled original ERAP; dominant-negative peptide; source: synthetic peptide
